Data as given in ChEMBL document CHEMBL1201862, “PubChem BioAssay data set” (2004).
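Test compounds were applied to cells in 96-well plates for 48 hours at 5 doses. At the GI50, growth is halved.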 The source made the active and inactive calls. No stated cut-off is given here; in the data, active = GI50 up to about 1.1 µM and inactive = higher.

What was measured:
Test in all cases: NCI tumour cell line growth inhibition, 48 h
[1] = tested on: EKVX
[2] = tested on: HCC 2998
[3] = tested on: HCT-15
[4] = tested on: HOP-62
[5] = tested on: K562
[6] = tested on: Malme-3M
[7] = tested on: NCI-H226
[8] = tested on: NCI-H23
[9] = tested on: RPMI-8226
[10] = tested on: RXF 393
[11] = tested on: SF-268
[12] = tested on: SK-MEL-5
[13] = tested on: SN12C
[14] = tested on: SNB-75
[15] = tested on: SW-620
[16] = tested on: HL-60

SMILES	GI50 [1]	GI50 [2]	GI50 [3]	GI50 [4]	GI50 [5]	GI50 [6]	GI50 [7]	GI50 [8]	GI50 [9]	GI50 [10]	GI50 [11]	GI50 [12]	GI50 [13]	GI50 [14]	GI50 [15]	GI50 [16]
NC1CCCCC1.O=P(O)(O)C1(P(=O)(O)O)CC1	> 100 µM (inactive)	> 100 µM (inactive)	> 100 µM	> 100 µM (inactive)	> 100 µM (inactive)	> 100 µM (inactive)	> 100 µM (inactive)	> 100 µM (inactive)	> 100 µM (inactive)	> 100 µM (inactive)	> 100 µM (inactive)	> 100 µM (inactive)	> 100 µM (inactive)	> 100 µM (inactive)	> 100 µM (inactive)	–
O=C(O)/C=C/c1nc2ccccc2c(=O)o1	> 100 µM (inactive)	> 100 µM (inactive)	> 100 µM	–	> 100 µM (inactive)	–	> 100 µM (inactive)	> 100 µM (inactive)	> 100 µM (inactive)	–	–	> 100 µM (inactive)	> 100 µM (inactive)	> 100 µM (inactive)	> 100 µM (inactive)	> 100 µM (inactive)
c1ccc(C2=NOC3C4CCC(C4)C23)cc1 (stereo not given)	> 100 µM (inactive)	> 100 µM (inactive)	> 100 µM	> 100 µM (inactive)	> 100 µM (inactive)	> 100 µM (inactive)	> 100 µM (inactive)	> 100 µM (inactive)	> 100 µM (inactive)	–	> 100 µM (inactive)	> 100 µM (inactive)	> 100 µM (inactive)	> 100 µM (inactive)	> 100 µM (inactive)	> 100 µM (inactive)
COc1cc(/C=C/c2csnn2)cc(OC)c1OC	52.2 µM (inactive)	> 100 µM (inactive)	> 100 µM	> 100 µM (inactive)	> 100 µM (inactive)	> 100 µM (inactive)	> 100 µM (inactive)	> 100 µM (inactive)	> 100 µM (inactive)	> 100 µM (inactive)	67 µM (inactive)	> 100 µM (inactive)	> 100 µM (inactive)	–	> 100 µM (inactive)	> 100 µM (inactive)
C/C=C1/C(=O)O[C@]23C=C[C@@H]4C(C(=O)OC)=CO[C@H](O[C@@H]12)[C@@H]43 [PLUMERICIN]	1.3 µM (inactive)	2.68 µM (inactive)	0.671 µM	6.38 µM (inactive)	0.652 µM (active)	1.93 µM (inactive)	2.44 µM (inactive)	0.916 µM (active)	0.423 µM (active)	0.55 µM (active)	1.28 µM (inactive)	2.12 µM (inactive)	1.98 µM (inactive)	3.34 µM (inactive)	0.432 µM (active)	0.24 µM (active)
O=C(CCCCCCCCCCc1ccccc1)C1=C(O)CC(O)CC1=O (stereo not given)	81.1 µM (inactive)	34.9 µM (inactive)	–	> 100 µM (inactive)	30.5 µM (inactive)	–	24 µM (inactive)	56.4 µM (inactive)	34.8 µM (inactive)	> 100 µM (inactive)	> 100 µM (inactive)	48 µM (inactive)	96.2 µM (inactive)	> 100 µM (inactive)	76.9 µM (inactive)	20.7 µM (inactive)
CCOC(=O)C1=C(Nc2ccccc2)SCC1=O	–	> 100 µM (inactive)	> 100 µM	> 100 µM (inactive)	> 100 µM (inactive)	> 100 µM (inactive)	> 100 µM (inactive)	> 100 µM (inactive)	> 100 µM (inactive)	–	> 100 µM (inactive)	–	> 100 µM (inactive)	> 100 µM (inactive)	> 100 µM (inactive)	> 100 µM (inactive)
O=C(CC1(O)C(=O)Nc2ccccc21)c1ccc(O)cc1O (stereo not given)	> 100 µM (inactive)	–	> 100 µM	> 100 µM (inactive)	> 100 µM (inactive)	> 100 µM (inactive)	> 100 µM (inactive)	> 100 µM (inactive)	> 100 µM (inactive)	> 100 µM (inactive)	> 100 µM (inactive)	> 100 µM (inactive)	> 100 µM (inactive)	> 100 µM (inactive)	> 100 µM (inactive)	> 100 µM (inactive)
Cc1c2cc[n+](COC(=O)c3ccccc3)cc2c(C)c2c1[nH]c1ccccc12	–	–	–	1.31 µM (inactive)	0.388 µM (active)	1.46 µM (inactive)	–	0.849 µM (active)	0.569 µM (active)	–	0.571 µM (active)	1.36 µM (inactive)	0.533 µM (active)	–	0.383 µM (active)	1.1 µM (active)
CCN(CC)C(=O)Cc1[nH][nH]c(=O)c1C(=O)N(CC)CC	> 100 µM (inactive)	> 100 µM (inactive)	> 100 µM	> 100 µM (inactive)	> 100 µM (inactive)	> 100 µM (inactive)	> 100 µM (inactive)	> 100 µM (inactive)	> 100 µM (inactive)	> 100 µM (inactive)	> 100 µM (inactive)	–	> 100 µM (inactive)	> 100 µM (inactive)	> 100 µM (inactive)	> 100 µM (inactive)
